Laboratory results as given in ChEMBL document CHEMBL1201862, “PubChem BioAssay data set” (2004).
The source made the active and inactive calls.

Key:
[1] = blockers of HIV-1 ZM109 envelope-driven cell-cell fusion – HeLa effector, CEM target cells, luciferase, cherry-pick, dose response (AID 652058); type: functional, cell-based;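 note: luciferase signal from HIV-1 Env mediated cell-cell fusion of effector and target cells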
[2] = inhibition of Env-driven cell fusion – HIV entry, plate reader, dry powder, dose response (AID 687023); type: functional, cell-based
[3] = blockers of HIV-1 envelope-mediated cell-cell fusion – cherry-pick, dose response (AID 652057); type: functional, cell-based
[4] = viability loss in CEM21 cells – cell-based, plate reader, dry powder, cytotoxicity control, dose response (AID 687026); type: functional
cells = conditions: HEK293
[5] = target: NAD-dependent protein deacylase sirtuin-5, mitochondrial (Homo sapiens, UniProt Q9NXA8); assay: blockers of sirtuin-5 peptide desuccinylation – biochemical, fluorescence imaging, cherry-pick, set 6, dose response (AID 720597)
Sequence of NAD-dependent protein deacylase sirtuin-5, mitochondrial (Q9NXA8 whole entry): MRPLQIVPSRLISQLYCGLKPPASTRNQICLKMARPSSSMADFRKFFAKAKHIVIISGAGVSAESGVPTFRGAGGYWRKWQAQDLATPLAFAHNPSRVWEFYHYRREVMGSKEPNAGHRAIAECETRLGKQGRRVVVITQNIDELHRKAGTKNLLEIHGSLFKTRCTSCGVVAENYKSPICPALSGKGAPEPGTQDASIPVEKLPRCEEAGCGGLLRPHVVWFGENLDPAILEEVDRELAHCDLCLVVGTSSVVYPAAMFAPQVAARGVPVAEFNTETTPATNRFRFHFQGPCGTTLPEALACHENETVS

Paired box protein Pax-8 = Paired box protein Pax-8 (Homo sapiens, UniProt Q06710); assay: PAX8 transcriptional activity inhibition in RMG-I – RMG-I cells, luciferase, cherry-pick, dose response (AID 687027); type: functional, cell-based;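 note: luciferase reporter driven by Pax8 target thyroperoxidase promoter measured by SteadyGlo luminescence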
Sequence of Paired box protein Pax-8 (Q06710 whole entry): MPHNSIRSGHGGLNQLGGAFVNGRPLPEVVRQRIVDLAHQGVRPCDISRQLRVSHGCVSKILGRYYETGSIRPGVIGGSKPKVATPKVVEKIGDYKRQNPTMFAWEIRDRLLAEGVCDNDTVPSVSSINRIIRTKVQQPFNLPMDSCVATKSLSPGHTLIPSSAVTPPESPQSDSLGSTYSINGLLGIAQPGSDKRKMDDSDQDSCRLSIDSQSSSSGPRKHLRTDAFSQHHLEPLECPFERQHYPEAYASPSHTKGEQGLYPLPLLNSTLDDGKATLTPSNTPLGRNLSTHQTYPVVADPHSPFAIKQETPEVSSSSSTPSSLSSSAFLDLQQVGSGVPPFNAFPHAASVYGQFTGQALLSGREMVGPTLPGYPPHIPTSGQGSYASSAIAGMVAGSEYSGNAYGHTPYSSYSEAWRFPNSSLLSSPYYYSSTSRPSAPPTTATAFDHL

[6] = OVCAR8 cell viability loss – plate reader, dry powder samples, PAX8 project, dose response (AID 743197); type: functional, cell-based; conditions: OVCAR-8
[7] = IGROV1 cell killing – plate reader, dry powder samples, PAX8 inhibitor project, dose response (AID 743043); type: functional, cell-based; conditions: IGROV-1
[8] = toxicity toward immortalized ovarian surface epithelium – cell-based, plate reader, dry powder samples, cytotoxicity control for PAX8 inhibitor project, dose response (AID 743045); type: functional
[9] = target: T1, Replicative DNA helicase DnaB (Mycobacterium tuberculosis, UniProt P9WMR3); assay: DnaB intein splicing inhibitors, dose response, biochemical, cell-free fluorescence (AID 449749); type: functional
T1 sequence (P9WMR3 whole entry): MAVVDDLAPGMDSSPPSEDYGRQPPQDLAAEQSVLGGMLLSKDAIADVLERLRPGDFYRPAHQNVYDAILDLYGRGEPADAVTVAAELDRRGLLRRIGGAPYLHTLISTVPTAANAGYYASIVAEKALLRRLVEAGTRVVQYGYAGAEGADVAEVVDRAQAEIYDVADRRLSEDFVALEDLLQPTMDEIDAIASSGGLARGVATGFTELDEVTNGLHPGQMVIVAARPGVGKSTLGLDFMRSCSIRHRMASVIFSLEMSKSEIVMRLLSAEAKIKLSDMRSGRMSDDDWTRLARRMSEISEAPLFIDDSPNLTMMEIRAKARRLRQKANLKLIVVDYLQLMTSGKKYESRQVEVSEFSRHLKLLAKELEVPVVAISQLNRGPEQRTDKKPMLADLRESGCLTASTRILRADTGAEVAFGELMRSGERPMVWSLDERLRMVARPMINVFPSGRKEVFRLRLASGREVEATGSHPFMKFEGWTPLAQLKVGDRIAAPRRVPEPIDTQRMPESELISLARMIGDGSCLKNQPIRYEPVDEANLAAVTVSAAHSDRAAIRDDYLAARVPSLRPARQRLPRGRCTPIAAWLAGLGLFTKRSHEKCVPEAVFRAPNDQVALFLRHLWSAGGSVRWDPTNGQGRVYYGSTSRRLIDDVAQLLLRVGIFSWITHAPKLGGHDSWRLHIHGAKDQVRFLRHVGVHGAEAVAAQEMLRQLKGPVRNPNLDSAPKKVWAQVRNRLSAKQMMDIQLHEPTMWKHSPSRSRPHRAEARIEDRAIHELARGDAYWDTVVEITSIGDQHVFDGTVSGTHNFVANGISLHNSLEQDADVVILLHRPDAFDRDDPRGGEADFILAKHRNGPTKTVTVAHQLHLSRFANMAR

Genome polyprotein = Genome polyprotein (dengue virus type 2, UniProt P29990); assay: flavivirus cap methylation enzyme inhibition – biochemical, confirmation dose response, primary screen (AID 588689); type: functional
Sequence of Genome polyprotein (P29990 2492-3391 limits assumed): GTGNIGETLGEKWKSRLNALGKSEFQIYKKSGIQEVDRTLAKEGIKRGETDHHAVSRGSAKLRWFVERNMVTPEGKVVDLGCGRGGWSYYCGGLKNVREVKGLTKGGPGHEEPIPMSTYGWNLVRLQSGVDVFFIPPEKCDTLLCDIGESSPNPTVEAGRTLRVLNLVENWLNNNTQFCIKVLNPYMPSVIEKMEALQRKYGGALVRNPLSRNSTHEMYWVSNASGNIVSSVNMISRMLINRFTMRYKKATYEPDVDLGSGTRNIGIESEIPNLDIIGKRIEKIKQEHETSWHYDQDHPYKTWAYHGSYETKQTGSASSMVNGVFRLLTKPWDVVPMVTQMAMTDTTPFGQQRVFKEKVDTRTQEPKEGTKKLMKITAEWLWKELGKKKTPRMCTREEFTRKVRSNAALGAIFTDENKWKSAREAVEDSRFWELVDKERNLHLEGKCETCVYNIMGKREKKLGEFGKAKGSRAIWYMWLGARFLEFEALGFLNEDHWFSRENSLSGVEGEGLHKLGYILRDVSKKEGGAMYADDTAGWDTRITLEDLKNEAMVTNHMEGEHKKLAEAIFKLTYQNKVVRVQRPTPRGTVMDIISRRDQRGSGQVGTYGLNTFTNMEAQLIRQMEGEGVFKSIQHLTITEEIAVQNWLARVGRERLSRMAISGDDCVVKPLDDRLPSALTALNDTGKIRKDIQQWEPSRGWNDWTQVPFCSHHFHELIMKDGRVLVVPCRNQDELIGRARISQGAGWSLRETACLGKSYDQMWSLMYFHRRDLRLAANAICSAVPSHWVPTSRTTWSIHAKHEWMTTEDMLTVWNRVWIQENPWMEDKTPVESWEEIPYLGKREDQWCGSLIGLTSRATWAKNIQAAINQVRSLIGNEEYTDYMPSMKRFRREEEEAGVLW

[10] = target: Tyrosyl-DNA phosphodiesterase 2 (Homo sapiens, UniProt O95551); assay: potency against TDP2 phosphodiesterase activity – biochemical, epi absorbance, IC50, dose response (AID 743297)
Sequence of Tyrosyl-DNA phosphodiesterase 2 (O95551 whole entry): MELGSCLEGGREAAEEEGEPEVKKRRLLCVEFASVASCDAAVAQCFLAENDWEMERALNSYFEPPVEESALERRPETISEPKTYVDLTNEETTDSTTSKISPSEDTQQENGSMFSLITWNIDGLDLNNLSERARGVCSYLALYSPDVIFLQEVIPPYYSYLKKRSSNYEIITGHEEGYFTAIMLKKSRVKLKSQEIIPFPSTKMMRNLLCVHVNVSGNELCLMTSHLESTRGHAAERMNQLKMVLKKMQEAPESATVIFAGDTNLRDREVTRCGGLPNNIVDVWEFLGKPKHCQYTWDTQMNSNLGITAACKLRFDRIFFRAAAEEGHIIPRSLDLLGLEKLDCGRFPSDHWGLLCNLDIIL

Protein RecA = target: T2, Protein RecA (Mycobacterium tuberculosis, UniProt P9WHJ3); assay: Fluorescence Cell-Free Homogeneous Dose Retest to Identify Inhibitors of RecA-Intein Splicing Activity. [Related pubchem assays (depositor defined):AID2097, AID2223, AID489010, AID492950]; type: functional
T2 sequence (P9WHJ3 whole entry): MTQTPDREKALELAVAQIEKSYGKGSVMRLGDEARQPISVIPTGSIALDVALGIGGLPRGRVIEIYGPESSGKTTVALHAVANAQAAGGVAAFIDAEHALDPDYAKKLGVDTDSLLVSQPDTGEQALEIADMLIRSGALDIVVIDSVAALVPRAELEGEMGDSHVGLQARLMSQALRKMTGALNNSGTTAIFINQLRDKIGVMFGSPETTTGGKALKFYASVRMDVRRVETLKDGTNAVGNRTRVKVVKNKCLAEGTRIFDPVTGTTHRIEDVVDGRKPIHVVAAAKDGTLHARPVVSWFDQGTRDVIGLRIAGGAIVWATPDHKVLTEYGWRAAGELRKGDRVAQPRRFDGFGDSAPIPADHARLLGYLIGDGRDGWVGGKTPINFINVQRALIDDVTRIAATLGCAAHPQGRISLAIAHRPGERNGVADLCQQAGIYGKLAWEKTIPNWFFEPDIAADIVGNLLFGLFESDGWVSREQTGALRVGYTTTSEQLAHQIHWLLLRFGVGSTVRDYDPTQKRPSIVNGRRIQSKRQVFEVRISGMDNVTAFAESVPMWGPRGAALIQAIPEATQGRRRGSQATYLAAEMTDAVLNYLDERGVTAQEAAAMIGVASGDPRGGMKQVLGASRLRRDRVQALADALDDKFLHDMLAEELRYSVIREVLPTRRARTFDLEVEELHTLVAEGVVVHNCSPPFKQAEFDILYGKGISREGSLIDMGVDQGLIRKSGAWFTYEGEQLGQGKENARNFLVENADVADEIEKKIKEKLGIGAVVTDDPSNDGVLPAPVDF

[11] = target: Metabotropic glutamate receptor 3 (Rattus norvegicus, UniProt P31422); assay: inhibition of rat mGlu3 glutamate signaling – HEK/GIRK cells, thallium flux, dose response (AID 651839); type: functional
Sequence of Metabotropic glutamate receptor 3 (P31422 whole entry): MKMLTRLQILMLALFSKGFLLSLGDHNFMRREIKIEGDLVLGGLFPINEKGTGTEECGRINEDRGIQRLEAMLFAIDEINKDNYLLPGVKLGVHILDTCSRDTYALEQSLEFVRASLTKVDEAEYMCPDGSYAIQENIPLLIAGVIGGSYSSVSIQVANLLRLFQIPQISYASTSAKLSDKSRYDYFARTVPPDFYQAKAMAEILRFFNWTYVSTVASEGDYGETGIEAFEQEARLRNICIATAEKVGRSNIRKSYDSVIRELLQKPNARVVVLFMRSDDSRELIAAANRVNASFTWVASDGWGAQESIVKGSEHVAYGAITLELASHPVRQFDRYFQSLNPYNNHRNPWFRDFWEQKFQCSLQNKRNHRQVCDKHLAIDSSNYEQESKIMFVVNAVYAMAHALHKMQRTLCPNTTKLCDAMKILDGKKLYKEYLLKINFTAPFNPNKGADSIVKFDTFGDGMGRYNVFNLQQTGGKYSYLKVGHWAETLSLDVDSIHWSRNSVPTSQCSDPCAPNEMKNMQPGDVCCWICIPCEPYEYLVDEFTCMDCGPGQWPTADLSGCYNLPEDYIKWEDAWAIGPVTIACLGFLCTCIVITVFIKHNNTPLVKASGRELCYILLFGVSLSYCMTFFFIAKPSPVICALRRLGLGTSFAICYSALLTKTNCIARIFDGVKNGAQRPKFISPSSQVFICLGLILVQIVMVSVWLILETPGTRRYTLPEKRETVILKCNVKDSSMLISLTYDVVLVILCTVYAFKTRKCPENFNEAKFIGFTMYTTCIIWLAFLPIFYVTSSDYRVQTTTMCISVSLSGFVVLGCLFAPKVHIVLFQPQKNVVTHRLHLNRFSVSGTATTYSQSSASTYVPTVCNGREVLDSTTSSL

C[C@H]1CN([C@@H](C)CO)C(=O)c2ccccc2-c2ccccc2CO[C@H]1CN(C)S(=O)(=O)c1ccccc1C#N
AC50 [1]: 3.49 µM (active) | AC50 [2]: 47 µM (active) | AC50 [3]: 0.838 µM (active) | AC50 [4]: > 70 µM (inactive)

CCN1C(=O)c2cccc3c(S(=O)(=O)N(C)C)ccc1c23
AC50 (cells): > 52 µM (inactive)

C[C@@H]1CN([C@@H](C)CO)C(=O)c2cc(NS(=O)(=O)c3ccccc3)ccc2O[C@@H]1CN(C)CC1CCCCC1
AC50 [5]: > 30 µM (inactive)

C[C@H]1CN([C@@H](C)CO)C(=O)c2cccc(NC(=O)NC3CCCCC3)c2O[C@@H]1CN(C)Cc1ccc(C(=O)O)cc1
AC50 [5]: 22.8 µM (active)

O=C(C[C@@H]1CC[C@@H]2[C@H](COC[C@H](O)CN2S(=O)(=O)c2ccccc2Cl)O1)N1CCC(Cc2ccccc2)CC1
AC50 (Paired box protein Pax-8): 13.3 µM (active) | AC50 [6]: 44.9 µM (active) | AC50 [7]: 37.6 µM (active) | AC50 [8]: 31.5 µM (active)

COc1ccc(C(c2c(C)[nH]n(-c3ccccc3)c2=O)c2c(C)[nH]n(-c3ccccc3)c2=O)cc1OC
AC50 [9]: 1.22 µM (active) | IC50 (Genome polyprotein): 35.9 µM (active) | IC50 [10]: 95.2 µM (inactive) | EC50 (Protein RecA): 0.688 µM (active)

O=C(c1ccc2cc(-c3cccc(OCc4ccccc4)c3)ccc2c1)N1CCCC(CO)C1 (stereo unspecified)
IC50 [11]: 1.08 µM (inactive)
